For orientation: IC50 means the concentration needed to halve the response being measured. By inhibition is commonly meant the relative decrease from the control value, in per cent.

Activity calls are given as the source filed them. No cut-off for these calls is given here.

The text below walks through data of ChEMBL document CHEMBL5634084, “Design and optimization of selective and potent CDK9 inhibitors with flavonoid scaffold for the treatment of acute myeloid leukemia” (Eur J Med Chem, 2023).

One series addresses CDK9/cyclin T1 (Homo sapiens, UniProt P50750). As to the kind of experiment: Inhibition of CDK9/CyclinT1 (unknown origin) by ADP-Glo assay. The format is protein-complex assay.
Series [1] has as its target Cyclin-dependent kinase 7 (Homo sapiens) (UniProt P50613). Briefly: Inhibition of wild type full length human CDK7 (1 to 344 esidues) expessed in mammalian expression system at 1 uM by KINOMEscan analysis.
Series [2] addresses Mitogen-activated protein kinase kinase kinase 7 (Homo sapiens) (UniProt O43318). As to the kind of experiment: Inhibition of wild type partial length human TAK1 (1 to 303 residues) expressed in mammalian expression system at 1 uM by KINOMEscan analysis.
The nature of series [3]: Metabolic stability of the compound in rat liver microsomes at 10 uM measured for 60 mins in presence of NADPH by LC-MS/MS analysis. The format is ADME, Microsome. The settings on record: 1 h. For orientation: Liver microsomes are a subcellular fraction often used to study metabolism.
The subject of another series is HT-29. Briefly: Antiproliferative activity against human HT-29 cells assessed as reduction in cell viability measured after 72 hrs. The series is classed as functional, cell-based. The settings on record: HT-29, 72 h.
The nature of series [4]: Toxicity in BALB/c mouse xenografted with human MV4-11 cells assessed as animal's mortality at 7.5 to 15 mg/kg, iv qd. As to conditions: in vivo, dose 7.5-15 mg/kg. The series is classed as organism-based.
Series [5] has as its target Cyclin-dependent kinase 9 (Homo sapiens) (UniProt P50750). Briefly: Inhibition of CDK9 in human MV4-11 cells assessed as reduction in c-Myc mRNA expression at 0.1 to 2 uM incubated for 12 hrs by qPCR analysis. The series is classed as cell-based. As to conditions: dose 0.1-2 µM. (In general: In qPCR the cycle at which signal appears reflects the starting amount.)
Series [6] deals with MV4-11. Briefly: Induction of apoptosis in human MV4-11 cells assessed as early apoptotic cells at 0.1 uM incubated for 24 hrs by AnnexinV-FITC/PI staining based flow cytometry (reference value: 1.42%). The format is functional.
The test system of series [7] is MV4-11. Briefly: Induction of apoptosis in human MV4-11 cells assessed as necrotic cells at 0.1 uM incubated for 24 hrs by AnnexinV-FITC/PI staining based flow cytometry (reference value: 0%). The format is functional. Background: A flow cytometer gives signals particle by particle.
Series [8] relates to MV4-11. As to the kind of experiment: Induction of apoptosis in human MV4-11 cells assessed as increase in cleaved PARP-1 protein expression incubated for 24 hrs by western blot analysis. The series is classed as functional, cell-based. As to conditions: dose 0.1-4 µM.

Mitogen-activated protein kinase kinase kinase 7 (Homo sapiens), sequence (O43318 whole entry, the tested form may be a part): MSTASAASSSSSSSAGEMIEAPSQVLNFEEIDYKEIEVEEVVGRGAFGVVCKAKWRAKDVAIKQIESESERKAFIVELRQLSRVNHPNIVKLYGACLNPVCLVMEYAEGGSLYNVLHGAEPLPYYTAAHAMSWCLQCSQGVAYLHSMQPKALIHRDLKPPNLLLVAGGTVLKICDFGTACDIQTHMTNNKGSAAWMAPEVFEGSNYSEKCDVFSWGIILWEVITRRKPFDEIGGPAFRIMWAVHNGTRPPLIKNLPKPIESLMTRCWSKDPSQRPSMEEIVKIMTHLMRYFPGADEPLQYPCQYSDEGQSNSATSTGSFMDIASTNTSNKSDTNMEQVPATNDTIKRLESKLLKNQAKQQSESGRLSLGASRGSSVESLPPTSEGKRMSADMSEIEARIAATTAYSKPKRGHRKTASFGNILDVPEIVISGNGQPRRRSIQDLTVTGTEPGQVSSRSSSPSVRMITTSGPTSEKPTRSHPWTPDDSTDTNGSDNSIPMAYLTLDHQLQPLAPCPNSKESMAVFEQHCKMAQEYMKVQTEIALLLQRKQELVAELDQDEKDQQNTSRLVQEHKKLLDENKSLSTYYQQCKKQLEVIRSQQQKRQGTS
CDK9/cyclin T1, sequence (O60563 whole entry): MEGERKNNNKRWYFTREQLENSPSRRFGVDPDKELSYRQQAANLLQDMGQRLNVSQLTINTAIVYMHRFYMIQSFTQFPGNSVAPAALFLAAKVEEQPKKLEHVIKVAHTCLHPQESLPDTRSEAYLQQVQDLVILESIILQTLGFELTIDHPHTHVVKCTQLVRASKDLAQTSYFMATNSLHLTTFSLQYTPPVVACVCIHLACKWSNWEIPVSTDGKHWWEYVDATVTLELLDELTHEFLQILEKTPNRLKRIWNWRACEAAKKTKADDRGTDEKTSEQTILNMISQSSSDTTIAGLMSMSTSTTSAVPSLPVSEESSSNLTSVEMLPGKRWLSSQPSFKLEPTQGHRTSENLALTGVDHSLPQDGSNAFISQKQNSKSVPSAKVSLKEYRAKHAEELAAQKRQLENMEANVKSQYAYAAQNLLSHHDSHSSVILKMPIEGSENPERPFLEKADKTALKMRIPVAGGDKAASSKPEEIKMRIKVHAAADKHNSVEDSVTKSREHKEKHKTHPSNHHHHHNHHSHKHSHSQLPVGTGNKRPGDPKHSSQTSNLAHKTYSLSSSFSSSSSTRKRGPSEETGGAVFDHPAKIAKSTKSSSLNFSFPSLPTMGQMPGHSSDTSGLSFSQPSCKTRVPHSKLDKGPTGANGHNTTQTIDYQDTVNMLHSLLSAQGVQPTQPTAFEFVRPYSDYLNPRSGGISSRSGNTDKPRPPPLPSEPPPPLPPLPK
CDK9/cyclin T1, sequence (P50750 whole entry): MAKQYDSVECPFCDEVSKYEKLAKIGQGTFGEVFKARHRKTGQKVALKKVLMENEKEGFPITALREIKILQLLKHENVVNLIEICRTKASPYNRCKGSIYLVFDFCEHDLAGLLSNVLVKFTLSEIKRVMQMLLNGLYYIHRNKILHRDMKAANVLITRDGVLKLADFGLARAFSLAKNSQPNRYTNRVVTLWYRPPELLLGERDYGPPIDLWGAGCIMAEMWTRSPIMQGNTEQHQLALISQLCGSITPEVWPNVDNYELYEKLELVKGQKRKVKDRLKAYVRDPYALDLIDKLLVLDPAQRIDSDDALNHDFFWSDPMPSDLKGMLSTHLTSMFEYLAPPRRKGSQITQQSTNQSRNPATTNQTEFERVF
Cyclin-dependent kinase 7 (Homo sapiens), sequence (P50613 whole entry, the tested form may be a part): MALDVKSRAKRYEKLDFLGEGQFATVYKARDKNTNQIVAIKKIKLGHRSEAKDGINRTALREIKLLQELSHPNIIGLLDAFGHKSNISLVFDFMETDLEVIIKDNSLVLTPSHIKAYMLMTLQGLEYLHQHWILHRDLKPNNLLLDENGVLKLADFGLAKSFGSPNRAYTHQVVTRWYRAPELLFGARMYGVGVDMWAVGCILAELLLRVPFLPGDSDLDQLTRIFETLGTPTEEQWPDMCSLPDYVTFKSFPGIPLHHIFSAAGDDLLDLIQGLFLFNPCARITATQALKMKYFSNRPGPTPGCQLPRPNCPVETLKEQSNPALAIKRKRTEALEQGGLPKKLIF
Cyclin-dependent kinase 9 (Homo sapiens), sequence (P50750 whole entry): as the sequence (P50750 whole entry) above

Turning to `COc1cc(O)c2c(=O)cc(-c3ccc(N4CCN(C)CC4)cc3)oc2c1C1=CCN(C)CC1`, the figures for the IC50 against CDK9/cyclin T1 and in the series on HT-29 were 6.7 nM and 1060 nM, respectively. In addition, the results for the inhibition in series [1] and in [2] were 4.8% and 9.5%, respectively. Moreover, in series [3], the Stability result is reported as “Stable”. The Activity result was “Non-Toxic” in [4], 1.46% with MV4-11 [6], 0.02% in the series on MV4-11 [7] and “Dose-Dependent Effect” with MV4-11 [8]. The inhibition result in [5] was “Active”.
